Measured values as given in publication PMC8473062, “Stability and Safety of Inhibitor Cystine Knot Peptide, GTx1-15, from the Tarantula Spider Grammostola rosea” (Toxins, 2021).
Where two headings read alike, the source gives them in different places.

How the values were obtained:
THP-1 cells = assay: Antigenicity assay (CD80, CD86, CD54 expression by real-time PCR); settings: positive control 4 μg/mL, 24 h exposure, RT-PCR, one range for the three genes
Description: THP-1 cells were cultured as described above. For antigenicity assays, 2.4 × 10^6 THP-1 cells were inoculated into single wells of a 12-well plate with 1.2 mL RPMI-1640 medium. […] As a negative control, RPMI-1640 was added. After a 24-h incubation, THP-1 cells were collected via centrifugation at 1000× g for 5 min, and then total RNA was extracted from cells using an RNeasy Mini Kit (QIAGEN, Hilden, Germany) according to the manufacturer’s instructions. Total RNA was treated with DNase (QIAGEN) for 10 min to digest contaminating genomic DNA and purified by an RNeasy MinElute Cleanup Kit (QIAGEN). Complementary DNA was synthesized with PrimeScript Reverse Transcriptase (Takara Bio) with an oligo (dT)12-18 primer (Invitrogen, Waltham, USA), 10 mM each dNTP mixture (Promega, Madison, USA), and RNase Inhibitor (Takara Bio). Real-time PCR mixtures were prepared with SYBR Premix Ex Taq (Takara Bio) according to the manufacturer’s instructions. […] Primers for real-time PCR were designed using Roche ProbeFinder version 2.45 (http://qpcr.probefinder.com/roche3.html. This site is stopped at the end of 2020).

[1] = Protein thermal shift assay; format: physicochemical; settings: Protein Thermal Shift kit, heated 25 to 99 °C at 1 °C/min
Description: The protein thermal shift assay was conducted with the StepOne Real-Time PCR System (Thermo Fisher Scientific) using the Protein Thermal Shift Assay Kit according to the manufacturer’s instructions with Protein Thermal Shift Software version 1. The protein melt reaction mix was added to the wells of a 48-well PCR plate. The plate was heated from 25 to 99 °C with a heating rate of 1 °C/min. The software allows the user to calculate a melting temperature (Tm) from their melt curve data using the Boltzmann equation (Tm B).

[2] = cited from earlier work; for degradation after thermal incubation: 24 h
Description: Cyclotides are cystine-knotted peptides in which the N- and C-termini are cyclized. Kalata B1 is a well-known cyclotide that consists of 29 amino acids and is not degraded after heating to temperatures approaching boiling. The insecticidal spider toxin ω-hexatoxin-Hv1a is an ICK peptide whose thermal stability has been investigated. After incubating it for 24 h at 50 °C, 75 °C or 95 °C, ω-hexatoxin-Hv1a is degraded about 20%, 30% and 90%, respectively. In contrast, GTx1-15 degraded only 30% after a 24-h incubation at 95 °C.

[3] = cited from earlier work
Description: We previously reported that ProTxII (an ICK peptide) remains in circulation for over 4 h. Similar to those results, GTx1-15 retains an effective concentration in circulation for over several hours.

For `O=[N+]([O-])c1ccc(Cl)c([N+](=O)[O-])c1` [DNCB, 2,4-Dinitrochlorobenzene], the “increase in expression of CD80, CD86 and CD54 genes” value (THP-1 cells) was 20–70 times.

For GsMTx4, the “Tm B (Boltzmann melting temperature)” value [1] was 95.26 ± 0.10 °C.

For “Kalata B1: well-known cyclotide of 29 amino acids; cystine-knotted peptide with N- and C-termini cyclized (cyclo(GLPVCGETCVGGTCNTPGCTCSWPVCTRN); disulfide (positions not given here); also: cystine-knotted (disulfide places not given here); UniProt P56254 89-117, looked up)”, the degradation after heating ([2]; heating to temperatures approaching boiling) is listed as “not degraded”.

In the case of “ProTxI: ICK peptide compared in the protein thermal shift assay (ECRYWLGGCSAGQTCCKHLVCSRRHGWCVWDGTFS; UniProt P83480 1-35, looked up)”, the “Tm B (Boltzmann melting temperature)” value [1] is reported as 93.23 ± 0.12 °C.

In the case of “ProTxII: ICK peptide compared in the protein thermal shift assay”, the “time remaining in circulation” value [3] is listed as “over 4 h” and the “Tm B (Boltzmann melting temperature)” value [1] is listed as 93.95 ± 0.12 °C.

For ω-hexatoxin-Hv1a, the “degradation after thermal incubation” value ([2]; 50 °C) is given as “about 20%”, the “degradation after thermal incubation” value ([2]; 75 °C) is given as roughly 30% and the “degradation after thermal incubation” value ([2]; 95 °C) is given as roughly 90%.
